Laboratory results as given in patent US20230121867A1, “COMPOSITIONS AND METHODS FOR TREATING DISEASES AND CONDITIONS BY DEPLETION OF MITOCHONDRIAL OR GENOMIC DNA FROM CIRCULATION” (Cedars-Sinai Medical Center, priority 2019, published 2023).

Columns and labels:
[1] = tested on: TRAMPC2 with wild type fibroblasts allografts; assay: Sub-renal capsule allograft of TRAMPC2 with wild type fibroblasts in C57BL/6 mice; type: in vivo, mouse
Experimental: FIG. 3, panels A-E, depicts Role of C3a in PCa progression. A PCa cell lines incubated in the absence and presence of C3a receptor agonist peptide (48 hr) was western blotted for cell survival and proliferation protein expression. B C57BL/6 mice were allografted with tissue recombinants of luciferase-expressing TRAMPC2 with wild type (wt) or Tlr9^-/-fibroblasts. The mice were treated with saline or […], SB290157. Luciferase bioluminescence was used to image tumor progression. C Mean tumor volume (mm^3) and standard deviation (S.D.) for each treatment condition are depicted (n=8). D H&E and immunohistochemistry for phosphorylated-AKT, phosphorylated-histone-H3 and TUNEL staining of the tumor tissues were performed and quantitated. […] The scale bar represents 10 µm.
To validate the observation of C3a signaling, we allografted mouse prostatic fibroblasts with PCa epithelia into syngeneic C57B/6 mice. We grafted either wild type or TLR9-knockout fibroblasts and recombined them with luciferase-expressing TRAMPC2 cells under the renal capsule. After the tumors were visible by bioluminescent imaging, the mice were treated with either vehicle (control) or SB290157, a C3aR antagonist. […] We were only able to perform immunohistochemistry on the grafts with wild type fibroblasts and TRAMPC2, as not enough tissue was available from grafts with TLR9-knockout fibroblasts. […] The activation of AKT, localized by phosphorylated AKT staining, was elevated in the tumor cells of mouse allografted with wild type fibroblasts and reversed in SB290157 treated mice.
Complement anaphylatoxins have a wide spectrum of proinflammatory effects. C3a is particularly regarded for the chemotaxis of mast cells, basophils and eosinophils. As T lymphocytes are confirmed regulators of tumor progression and known to respond to C3a, we measured the impact of C3a antagonism on T cell recruitment to the tumors.

PC3 and CAF co-culture = assay: 3D organotypic co-culture of PC3 and CAF, EpCAM+/Ki67+ FACS; type: cell-based; settings: PC3 and CAF 3D co-culture, 48 hours
Experimental: (§1) Significance was determined by repeated measures ANOVA.
3D organotypic co-culture: 3D organotypic co-culture was performed in a collagen matrix. PC3 and CAF were combined in a 1:3 ratio in collagen matrix contain 50% rat tail collagen I, 20% of matrigel, 10% of 10x DMEM medium and 1x ready DMEM 5%, 1x ready RPMI 5%, FBS 5% and Nu serum 5%. Cells were treated with docetaxel and SB290157 for 48 hours after 72 hours of expansion in the matrix. The cells were dissociated from the matrix with collagenase and dispase for Ki67 FACS analysis.

PC3 cells = assay: MTT viability drug interaction study, Chou-Talalay method; type: cell-based; settings: low doses of SB290157 with docetaxel
Experimental: as §1
Statistical analysis: Experiments were done a minimum of three times. Results were shown in terms of mean ± S.D. Student’s t-test and one-way ANOVA were used for comparisons among groups and repeated measured ANOVA was applied for determining the significance of two or more data series. Statistical tests utilized are reported in the figure legends, along with the associated P values was performed by using Origin software (OriginLab, Northampton, MA). Cell viability was examined by using MTT assay as indicated by the manufacturer (Thermo Fisher, Canoga Park, CA) for the calculation of synergistic drug interactions was performed by Chou-Talalay method (R Package).

[2] = tested on: xenografts of CAF and PC3 cells; assay: Subcutaneous xenograft of PC3 and CAF in male nude mice
Source text: A Subcutaneous xenografts of PC3 and CAF tumor volumes were longitudinally measured. […] Representative images show each group of mice (inset). […] C Immunolocalization ofphosphorylated-TAK1, complement C3, phosphorylated-AKT, phosphorylated-histoneH3 and TUNEL expression in tumor tissues (brown) was counterstained with hematoxylin (blue). The corresponding bar graph illustrate the mean and S.D. expression of the respective staining (n=5). Data represent the mean ± S.D. by one-way ANOVA (*P <0.05; **P <0.01). The scale bar represents 10 µm.
Data represent the mean ± S.D. among groups by oneway ANOVA (ns - not significant). C H&E images of resulting tumors from each treatment group of subcutaneous xenografted mice.
Animal experiments and cultured cells: Male C57BL/6 mice aged 7-8 weeks were housed in a pathogen-free environment at the Cedars-Sinai Medical Center Animal Facility under the approval of the Institutional Animal Care and Use Committee (# 3679). Sub-renal capsule was performed with wild type mouse fibroblasts (6×10^5) or TLR9^-/- mouse fibroblasts (6×10^5) combining with mouse prostate epithelial cell TRAMP-C2 (2×10^5) . Treatment with SB290157 (1 mg/kg; i.p. daily) was started after two weeks of grafting and continued for five weeks. All mouse kidney, spleen, lymph nodes were harvested after five weeks of treatment were fixed in paraffin embedded for IHC or dissociated for FACS analysis. Subcutaneous xenograft was done in male nude mice aged 7-8 weeks in combination of PC3 (5×10^5) and CAF (15×10^5). […] Harvested tissues were fixed in paraffin embedded for IHC or dissociated for immunoblot analysis.
Immunodetection: Paraffin embedded tissue were processed for Immunohistochemical localization was performed with antibodies against p-AKT, p-TAK, p-histoneH3 (Cell Signaling, Danvers, MA), C3 (Santa Cruz Biotechnology, Santa Cruz, CA), and TUNEL (Thermo Fisher Scientific Inc.) as previously described before (52, 53). All the slides were scanned using Leica SCN400 (Leica Micro System, Buffalo Grove, IL) and analyzed by Tissue IA Optimizer (Leica). The values of positively stained cells were measured in an unbiased manner. C3a concentration of cultured medium and serum was assayed by sandwich ELISA using human C3a ELISA kit (BD Bioscience, San Jose, CA) according to the manufacturer’s instructions. Western blots separated by 10, 12, or 15% SDS-polyacrylamidegels were incubated with primary antibodies for TLR9, DEC205 (LS Bio Seattle, WA), phospho-TAK1, TAK1, phospho-AKT, AKT, phosphor-ERK1/2, ERK, BCL2, beclin, CHOP (Cell Signaling), LC3 (Abcam, Cambridge, MA), C3 (Santa Cruz Biotechnology) and p62 (ProgenBiotechnik, Heidelberg, Germany). Western blots were visualized using alkaline phosphatase-conjugated secondary antibodies (Sigma-Aldrich). The ELISA for anaphylatoxin C3a for performed according to manufacturer guidelines (LSBio Inc.).

[3] = western blot, SB290157 with docetaxel

Question: What does the source list for NC(N)=NCCC[C@H](NC(=O)COCC(c1ccccc1)c1ccccc1)C(=O)O [SB290157]?
Answer: tumor size ([1]; 1 mg/kg i.p. daily, versus vehicle treated mice): significantly smaller tumor size; CD3+ T cells recruited to the tumors ([1]; FACS of tumor tissues): similarly recruited; CD8+ T cell activation (CD69+ expression) ([1]; FACS of tumor tissues): appreciably downregulated; activation of AKT (phosphorylated AKT staining) ([1]; immunohistochemistry of grafts): reversed; cell death (TUNEL staining) ([1]; immunohistochemistry of grafts): elevate cell death; tumor cell mitosis (phosphorylated-histone H3 expression), tumor proliferation ([1]; immunohistochemistry of grafts, 1 mg/kg i.p. daily, 1 mg/kg): significantly diminish tumor proliferation; tumor cell mitosis (phosphorylated-histone H3 expression), tumor proliferation ([1]; immunohistochemistry of grafts, 1 mg/kg i.p. daily, listed as SB29157, 1 mg/kg): significantly lower; EpCAM+/Ki67+ proliferative epithelial fraction (PC3 and CAF co-culture): restored the sensitivity of PC3 cells to docetaxel; fractional inhibitory concentration index (PC3 cells): < 0.5; apoptosis (TUNEL) ([2]; SB290157 with docetaxel compared to docetaxel alone): did not result in greater apoptosis; tumor growth ([2]; combined treatment of docetaxel (6 mg/kg/week) and SB290157 (1 mg/kg IP every day), P < 0.05): significantly limited tumor growth; phosphorylation of AKT and phosphorylated histone-H3 (cell survival pathway and mitosis) ([2]; immunohistochemistry, combined treatment of docetaxel and SB290157 versus docetaxel): significantly diminished; AKT and ERK1/2 phosphorylation in tumor tissues [2, 3]: reduced AKT and ERK1/2 phosphorylation; Blc2 in tumor tissues [2, 3]: reduced
